Values joined by “and” are separate entries in the source; they are usually repeats but may differ in a detail not shown here. Identical values can stand only once.

We go through two molecules from paper PMC7248098, “Biochemical characterization and inhibition of the alternative oxidase enzyme from the fungal phytopathogen Moniliophthora perniciosa” (Communications Biology, 2020).

For test [1], the target named is membrane-bound rMpAOX (Moniliophthora perniciosa, UniProt A8QJP8). Description: Dose-response assay of inhibitors with membrane-bound, GMP-activated rMpAOX (NADH oxidation). Type of test: biochemical. The protocol:
E. coli membrane preparation was performed as described with minor modifications. […] The cells were disrupted using two passes at […] through a pre-cooled Constant cell disruption system (Constant Systems Ltd). The lysate was centrifuged for 15 min at 16,000 rcf, and the pelleted unbroken cells and large cell debris were discarded. The supernatant was centrifuged for 90 min at 200,000 rcf to collect the fragmented membranes.
(§1) Respiration rates were recorded before and after the addition of putative AOX activators, such as 5′-ADP, 5′-AMP, 5′-GDP, 5′-GMP, glyoxylate, oxaloacetate, pyruvate or succinate (1 mM each unless stated otherwise). […] Data were acquired with the Multiskan FC Microplate Photometer (ThermoFisher). […] Absorbance readings were taken periodically and a blank reactions (substrate without enzyme) were included in every assay and were used to determine and subtract the autoxidation rate (background). Proteoliposomes were assayed as described for the E. coli membrane fraction except that no KCN was included and 0.5 µL of the prep (~50 ng rMpAOX) were added into the reaction. When tested, inhibitors were preincubated with the enzyme in reaction buffer for 2–5 min before starting the reaction by the addition of substrate. The path length (i.e., the height of the reaction medium inside the well) was calculated based on the reaction volume and the well cross-section area informed by the supplier. GraphPad Prism 7.0 (GraphPad Software Inc.) was used for function fitting.

In test [2] the target is purified rMpAOX (Moniliophthora perniciosa, UniProt A8QJP8). Description: Purified (detergent-solubilised) rMpAOX, Q1H2 oxidation. The format is biochemical. The protocol: The E. coli membrane fraction was resuspended with 50 mM Tris-HCl pH 7.5, 20% glycerol, 200 mM MgSO4 and 1% Fos-Choline-12 (FC-12) instead of MOPS buffer. The sample was left under gentle rocking for 1 h at 4 °C, after which it was centrifuged at 200,000 rcf for 30 min. […] T. Elthon, Nebraska, USA. Protein content was estimated through the Bradford method[63] and bovine serum albumin as standard.
as §1

Test [3] has as its target rMpAOX incorporated into proteoliposomes (Moniliophthora perniciosa, UniProt A8QJP8). Description: rMpAOX incorporated into proteoliposomes with Q10 and NDH-2 (NADH oxidation). The format is biochemical. The protocol:
Proteoliposomes (PL) were prepared as previously described[44],[45], except that NDH-2 was used instead of complex I and 0.5% DDM was used instead of OG. […] For kinetic studies, PLs were prepared with 50 µg rMpAOX and no NDH-2—in this case, pure NDH-2 was added directly into the enzymatic reaction mixture at a saturating concentration. Briefly, lipids and Q10 stocks in chloroform were mixed in a glass vial and the chloroform dried under a nitrogen stream. The lipids were hydrated and extruded through a 100 nm NanoSizer MINI Liposome Extruder (T&T Scientific) followed by the addition of protein. After treatment with the Bio-Beads SM-2 Resin (Bio-Rad), proteolipososmes were harvested by ultracentrifugation and resuspended in 150 µL of buffer. Enzymatic assays were performed on the same day.
as §1

The subject of test [4] is membrane-bound TAO. More on the design: method as in PMID 23180806. The settings on record: cited from earlier work.
For test [5], the system named is solubilised TAO. More on the design: method as in PMID 29107420. The settings on record: cited from earlier work.
Test [6] deals with TAO incorporated into PLs. Further details: method as in PMID 29133414. To be noted: cited from earlier work.
Test [7] concerns M. perniciosa. More on the design: method as in PMID 22443281, PMID 30350447. To be noted: cited from earlier work.

Sequence of purified rMpAOX (A8QJP8 entry or part of it): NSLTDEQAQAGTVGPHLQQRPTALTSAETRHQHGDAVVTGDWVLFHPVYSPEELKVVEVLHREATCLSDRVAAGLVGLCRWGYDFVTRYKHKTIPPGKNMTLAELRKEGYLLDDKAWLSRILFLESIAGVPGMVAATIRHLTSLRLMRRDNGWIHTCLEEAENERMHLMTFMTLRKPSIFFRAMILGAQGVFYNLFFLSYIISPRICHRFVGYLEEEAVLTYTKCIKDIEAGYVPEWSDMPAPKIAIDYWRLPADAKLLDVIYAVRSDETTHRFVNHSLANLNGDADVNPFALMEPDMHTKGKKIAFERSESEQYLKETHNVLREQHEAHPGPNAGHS
Sequence of rMpAOX incorporated into proteoliposomes (A8QJP8 entry or part of it): as above
Sequence of membrane-bound rMpAOX (A8QJP8 entry or part of it): as above

As usually defined, the IC50 is the concentration that gives 50% inhibition. Take `CC(C)=CCC/C(C)=C/Cc1c(O)c(Cl)c(C)c(C=O)c1O` [CB, colletochlorin B]: the “Fractional velocity, %” value in test [1] (log[I], M -4.60206 (Fig2b), 25 µM) is 2.536% and 2.662% and 8.437%; in test [1] (log[I], M -5.60206 (Fig2b), 2.5 µM), 2.977% and 3.203% and 8.094%; in test [1] (log[I], M -6.60206 (Fig2b), 0.25 µM), 4.262% and 7.7642% and 10.3237%; in test [1] (log[I], M -8.60206 (Fig2b), 0.0025 µM), 76.0268% and 98.1726% and 76.3221%; in test [1] (log[I], M -9.60206 (Fig2b), 0.00025 µM), 96.6921% and 90.9449%; in test [1] (log[I], M -10.6021 (Fig2b), 25 pM), 95.8052% and 91.68%. In addition, the “Fractional velocity, %” value in test [3] (log[CB], M -4.60206 (Fig4b), 25 µM) came out at 2.151%; in test [3] (log[CB], M -5.60206 (Fig4b), 2.5 µM), 4.07%; in test [3] (log[CB], M -6.60206 (Fig4b), 0.25 µM), 11.8798%; in test [3] (log[CB], M -7.60206 (Fig4b), 0.025 µM), 47.093%; in test [3] (log[CB], M -8.60206 (Fig4b), 0.0025 µM), 86.8217%; in test [3] (log[CB], M -9.60206 (Fig4b), 0.00025 µM), 97.2868%. The “Fractional velocity, %” value in test [3] (log[CB], M -10.6021 (Fig4b), 25 pM) came out at 98.4496%. Further, the activity at 0.00025 µM in test [1] (log[I], M -9.60206 (Fig2b), read-out: Fractional velocity, %) was found to be 96.2%; in test [2] ([I], M 2.5e-10, read-out: Dose-response assay with CB, (Fig3d)), 99.7%; in test [3] (log[CB], M -9.60206 (Fig4b), read-out: Fractional velocity, %), 99.3%. Moreover, the activity at 25 pM is 92% in test [1] (log[I], M -10.6021 (Fig2b), read-out: Fractional velocity, %); 99% in test [2] ([I], M 2.5e-11, read-out: Dose-response assay with CB, (Fig3d)); 98.7% in test [3] (log[CB], M -10.6021 (Fig4b), read-out: Fractional velocity, %). Besides, the IC50 in test [1] (membrane-bound, GMP-activated rMpAOX, read-out: IC50) was 14.8 nM; in test [2] (purified rMpAOX, enzyme 49.1 nM), 59.3 nM; in test [3] (proteoliposomes with rMpAOX, Q10 and NDH-2), 19.5 nM; in test [4], 0.2 nM. Further, the Ki in test [2] (Morrison equation for tight-binders, read-out: KIapp) worked out at 13.9 nM. The activity at 2.5 pM was 99.5% in test [2] ([I], M 2.5e-12, read-out: Dose-response assay with CB, (Fig3d)) and 100% in test [3] (log[CB], M -11.6021 (Fig4b), read-out: Fractional velocity, %). Also, in test [2] ([I], M 1e-11, read-out: Dose-response assay with CB, Fig3d), the activity at 10 pM was found to be 98%. For the same molecule, in test [2] ([I], M 1e-10, read-out: Dose-response assay with CB, Fig3d), the activity at 0.0001 µM was 100%. In addition, in test [2] ([I], M 1e-9, read-out: Dose-response assay with CB, Fig3d), the activity at 0.001 µM was determined as 96.8%. Besides, the activity at 0.0025 µM in test [2] ([I], M 2.5e-9, read-out: Dose-response assay with CB, (Fig3d)) was found to be 94.6%; in test [3] (log[CB], M -8.60206 (Fig4b), read-out: Fractional velocity, %) it was 74.5%. For the same molecule, the activity at 0.01 µM in test [2] ([I], M 1e-8, read-out: Dose-response assay with CB, Fig3d) stood at 79.3%. Also, the activity at 0.025 µM in test [2] ([I], M 2.5e-8, read-out: Dose-response assay with CB, (Fig3d)) is 69.2%; in test [3] (log[CB], M -7.60206 (Fig4b), read-out: Fractional velocity, %), 46.1%. Further, in test [2] ([I], M 1e-7, read-out: Dose-response assay with CB, Fig3d), the activity at 0.1 µM was determined as 36.9%. Further, the activity at 0.25 µM amounted to 22.7% in test [2] ([I], M 2.5e-7, read-out: Dose-response assay with CB, (Fig3d)) and 11.1% in test [3] (log[CB], M -6.60206 (Fig4b), read-out: Fractional velocity, %). For the same molecule, the activity at 1 µM in test [2] ([I], M 1e-6, read-out: Dose-response assay with CB, Fig3d) was 8.98%. Also, the activity at 2.5 µM turned out to be 10.4% in test [2] ([I], M 2.5e-6, read-out: Dose-response assay with CB, (Fig3d)) and 3.2% in test [3] (log[CB], M -5.60206 (Fig4b), read-out: Fractional velocity, %). In addition, in test [2] ([I], M 1e-5, read-out: Dose-response assay with CB, Fig3d), the activity at 10 µM was 2.99%. Besides, the activity at 25 µM in test [2] ([I], M 2.5e-5, read-out: Dose-response assay with CB, (Fig3d)) is 0%; in test [3] (log[CB], M -4.60206 (Fig4b), read-out: Fractional velocity, %) it was 2.86%. The activity at 100 µM in test [2] ([I], M 0.0001, read-out: Dose-response assay with CB, Fig3d) was found to be 3.34%. Moreover, the “CB-to-rMpAOX ratio at the IC50 concentration” value in test [2] (enzyme 49.1 nM) is recorded as 1.2. Further, the “CB-to-enzyme ratio at the IC50 concentration” value in test [5] was 1.3; in test [6] it was 1.4.

Consider `CCCOC(=O)c1cc(O)c(O)c(O)c1` [n-propyl gallate], for which the “Concentrations that inhibit M. perniciosa growth” value in test [7] is given as “millimolar concentrations”.
